In the assay the test system is obese patients with hypertension. The experiment in a line: Randomized, double-blind, multicenter clinical study: add-on treatment in grade 3 obese hypertensive patients who did not respond to HCTZ 25 mg. The class given is in vivo, human. The conditions noted are these: for BP control rate (in words): grade 3 obesity patients, comparison between treatment groups. The text has this: The effect of Aliskiren to treat hypertension in patients with obesity was investigated in a clinical study. […] [table]

The mark [1] stands for this setting: Grade 3 obesity (BMI ≧ 40 kg/m^2), least squares mean ± SEM change from baseline at wk 12 endpoint (ANCOVA; intent-to-treat), add-on to HCTZ 25 mg, dose doubled after 4 weeks.

Marks after values point to notes of the source that are not given here.

The text below walks through data of patent US20100029775A1, “RENIN INHIBITORS FOR THE PREVENTION AND TREATMENT OF HYPERTENSION IN OBESE PATIENTS” (priority 2006, published 2010).

For `NS(=O)(=O)c1cc2c(cc1Cl)NCNS2(=O)=O` [PBO/HCTZ, hydrochlorothiazide], the “BP control rate (in words)” value is “lower control rates”. Under setting [1], the “Change in DBP, mmHg” value is −5.9 ± 2.2 mmHg and the “Change in SBP, mmHg” value is −7.1 ± 3.2 mmHg. Also, the BP control rate (Grade 3 obesity (BMI ≧ 40 kg/m^2), patients reaching <140/90 mmHg, wk 12 endpoint, logistic regression model) came to 16.7%**.
Consider `COCCCOc1cc(C[C@@H](C[C@H](N)[C@@H](O)C[C@H](C(=O)NCC(C)(C)C(N)=O)C(C)C)C(C)C)ccc1OC` [aliskiren, 2(S),4(S),5(S),7(S)—N-(3-amino-2,2-dimethyl-3-oxopropyl)-2,7-di(1-methylethyl)-4-hydroxy-5-amino-8-[4-methoxy-3-(3-methoxy-propoxy)phenyl]-octanamide], for which the “BP control rate (in words)” value is listed as “highly effective BP control”.
